# Experimental data: BindingDB's records for doi:10.1021/acs.jmedchem.9b00882 (Shenyang Pharmaceutical University, 2019)
# Starred links: 1 amine or outer side, 2 acyl side, 3 side chain; linkers in the order of their positions; H or OH if unused. Positions of bridges follow the written chain, without caps; N, C: chain ends. Non-standard residues stand in square brackets, D forms with d. Residues, ends and D or L forms follow the SMILES beside them. ξ: configuration not given here. mXylylene = c1cc(C[*:1])cc(C[*:2])c1; ξhCys = NC(CCS)C(=O)O
# How the values were obtained:
# [1] = Inhibition of HIV1 gp41-induced cell-cell fusion between viral envelope expressing human HL2/3 cells to CD4/CCR5 receptor expressing TZM-bl cells after 6 hrs by luciferase assay
# [2] = Inhibition of HIV1 gp41-induced cell-cell fusion between viral envelope expressing human HL2/3 cells to CD4/CCR5 receptor expressing TZM-bl cells at 4:1 ratio of hCS6ERE to compound incubated for 6 hrs by luciferase reporter gene assay
# [3] = Inhibition of HIV1 gp41-induced cell-cell fusion between viral envelope expressing human HL2/3 cells to CD4/CCR5 receptor expressing TZM-bl cells at 2:1 ratio of hCS6ERE to compound incubated for 6 hrs by luciferase reporter gene assay
# [4] = Inhibition of HIV1 gp41-induced cell-cell fusion between viral envelope expressing human HL2/3 cells to CD4/CCR5 receptor expressing TZM-bl cells at 1:1 ratio of hCS6ERE to compound incubated for 6 hrs by luciferase reporter gene assay
# [5] = Inhibition of HIV1 gp41-induced cell-cell fusion between viral envelope expressing human HL2/3 cells to CD4/CCR5 receptor expressing TZM-bl cells at 4:1 compound to HP23 ratio incubated for 6 hrs by luciferase reporter gene assay
# [6] = target: Envelope glycoprotein gp160 (Human immunodeficiency virus 1, UniProt Q6QLK5); assay: Inhibition of HIV1 gp41-induced cell-cell fusion between viral envelope expressing human HL2/3 cells to CD4/CCR5 receptor expressing TZM-bl cells after 6 hrs by luciferase assay
# Chain of Envelope glycoprotein gp160 (Q6QLK5 whole entry, the tested form may be a part): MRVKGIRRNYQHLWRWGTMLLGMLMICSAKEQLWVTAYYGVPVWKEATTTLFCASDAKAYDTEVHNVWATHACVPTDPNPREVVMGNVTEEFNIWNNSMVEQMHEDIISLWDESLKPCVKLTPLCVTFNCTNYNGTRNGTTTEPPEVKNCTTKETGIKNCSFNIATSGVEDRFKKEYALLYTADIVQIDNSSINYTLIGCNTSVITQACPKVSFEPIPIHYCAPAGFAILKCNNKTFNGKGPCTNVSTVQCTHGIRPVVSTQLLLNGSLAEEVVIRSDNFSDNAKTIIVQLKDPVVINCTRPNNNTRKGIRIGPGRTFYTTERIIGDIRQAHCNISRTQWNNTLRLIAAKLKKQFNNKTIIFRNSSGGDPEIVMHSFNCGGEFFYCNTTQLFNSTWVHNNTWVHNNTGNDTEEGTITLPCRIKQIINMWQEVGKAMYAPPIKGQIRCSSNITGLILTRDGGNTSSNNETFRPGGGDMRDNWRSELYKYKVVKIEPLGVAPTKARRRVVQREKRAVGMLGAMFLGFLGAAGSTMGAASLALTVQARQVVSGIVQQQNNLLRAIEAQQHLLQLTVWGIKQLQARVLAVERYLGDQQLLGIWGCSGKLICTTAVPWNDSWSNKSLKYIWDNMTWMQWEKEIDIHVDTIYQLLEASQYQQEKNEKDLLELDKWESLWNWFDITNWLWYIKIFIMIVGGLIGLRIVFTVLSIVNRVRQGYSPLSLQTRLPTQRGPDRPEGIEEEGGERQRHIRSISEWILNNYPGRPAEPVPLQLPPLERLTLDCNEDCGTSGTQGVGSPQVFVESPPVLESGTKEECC
EC50 [1],Molecule,also measured
132 nM,CC[C@H](C)[C@H](NC(C)=O)C(=O)N[C@@H](CCC(=O)O)C(=O)N[C@@H](C)C(=O)N[C@@H](CC(C)C)C(=O)N[C@H](C(=O)N[C@@H](CCCNC(=N)N)C(=O)N[C@@H](C)C(=O)N[C@@H](C)C(=O)N[C@@H](CCC(N)=O)C(=O)N[C@@H](CCC(=O)O)C(=O)N[C@@H](CCC(N)=O)C(=O)N[C@@H](CCC(N)=O)C(=O)N[C@H]1CSCc2cccc(c2)CSC[C@@H](C(=O)N[C@@H](C)C(=O)N[C@@H](CC(C)C)C(=O)N[C@@H](CCCNC(=N)N)C(=O)N[C@@H](CCC(=O)O)C(=O)N[C@@H](CC(C)C)C(N)=O)NC(=O)[C@H](CCC(=O)O)NC(=O)[C@H](CC(N)=O)NC(=O)[C@H](CCCCN)NC1=O)[C@@H](C)CC (Ac-IEALIRAAQEQQCKNECALREL-NH2; linker 13-17 via mXylylene),
96 nM,CC[C@H](C)[C@H](NC(C)=O)C(=O)N[C@@H](CCC(=O)O)C(=O)N[C@@H](C)C(=O)N[C@@H](CC(C)C)C(=O)N[C@H](C(=O)N[C@H]1CSCc2cccc(c2)CSC[C@@H](C(=O)N[C@@H](CCC(N)=O)C(=O)N[C@@H](CCC(N)=O)C(=O)N[C@@H](CCC(=O)O)C(=O)N[C@@H](CCCCN)C(=O)N[C@@H](CC(N)=O)C(=O)N[C@@H](CCC(=O)O)C(=O)N[C@@H](C)C(=O)N[C@@H](C)C(=O)N[C@@H](CC(C)C)C(=O)N[C@@H](CCCNC(=N)N)C(=O)N[C@@H](CCC(=O)O)C(=O)N[C@@H](CC(C)C)C(N)=O)NC(=O)[C@H](CCC(N)=O)NC(=O)[C@H](C)NC(=O)[C@H](C)NC1=O)[C@@H](C)CC (Ac-IEALICAAQCQQEKNEAALREL-NH2; linker 6-10 via mXylylene),
11 nM,H-EMTWEEWEKKIEEYTKKIEEILK-OH,EC50 [2]: 1.7 nM; EC50 [3]: 5.3 nM; EC50 [4]: 11 nM
,CC[C@H](C)[C@H](NC(C)=O)C(=O)N[C@@H](CCC(=O)O)C(=O)N[C@@H](CCC(=O)O)C(=O)N[C@@H](CC(C)C)C(=O)N[C@H](C(=O)NC1CCSCc2cccc(c2)CSCCC(C(=O)N[C@@H](CCC(N)=O)C(=O)N[C@@H](CCC(N)=O)C(=O)N[C@@H](CCCNC(=N)N)C(=O)N[C@@H](CCCCN)C(=O)N[C@@H](CC(N)=O)C(=O)N[C@@H](CCC(=O)O)C(=O)N[C@@H](CCC(=O)O)C(=O)N[C@@H](C)C(=O)N[C@@H](CC(C)C)C(=O)N[C@@H](CCCNC(=N)N)C(=O)N[C@@H](CCC(=O)O)C(=O)N[C@@H](CC(C)C)C(N)=O)NC(=O)[C@H](CCC(N)=O)NC(=O)[C@H](C)NC(=O)[C@H](C)NC1=O)[C@@H](C)CC (some centres not stated) (Ac-IEELI[ξhCys]AAQ[ξhCys]QQRKNEEALREL-NH2; linker 6-10 via mXylylene),EC50 [5]: 7.1 nM; EC50 [6]: 7.2 nM
136 nM,CC[C@H](C)[C@H](NC(C)=O)C(=O)N[C@@H](CCC(=O)O)C(=O)N[C@H]1CSCc2cccc(c2)CSC[C@@H](C(=O)N[C@@H](C)C(=O)N[C@@H](CCC(N)=O)C(=O)N[C@@H](CCC(=O)O)C(=O)N[C@@H](CCC(N)=O)C(=O)N[C@@H](CCC(N)=O)C(=O)N[C@@H](CCC(=O)O)C(=O)N[C@@H](CCCCN)C(=O)N[C@@H](CC(N)=O)C(=O)N[C@@H](CCC(=O)O)C(=O)N[C@@H](C)C(=O)N[C@@H](C)C(=O)N[C@@H](CC(C)C)C(=O)N[C@@H](CCCNC(=N)N)C(=O)N[C@@H](CCC(=O)O)C(=O)N[C@@H](CC(C)C)C(N)=O)NC(=O)[C@H](CCCNC(=N)N)NC(=O)[C@H]([C@@H](C)CC)NC(=O)[C@H](CC(C)C)NC1=O (Ac-IECLIRCAQEQQEKNEAALREL-NH2; linker 3-7 via mXylylene),
171 nM,CC[C@H](C)[C@H](NC(C)=O)C(=O)N[C@@H](CCC(=O)O)C(=O)N[C@@H](C)C(=O)N[C@@H](CC(C)C)C(=O)N[C@H](C(=O)N[C@@H](CCCNC(=N)N)C(=O)N[C@@H](C)C(=O)N[C@@H](C)C(=O)N[C@@H](CCC(N)=O)C(=O)N[C@H]1CSCc2cccc(c2)CSC[C@@H](C(=O)N[C@@H](CC(N)=O)C(=O)N[C@@H](CCC(=O)O)C(=O)N[C@@H](C)C(=O)N[C@@H](C)C(=O)N[C@@H](CC(C)C)C(=O)N[C@@H](CCCNC(=N)N)C(=O)N[C@@H](CCC(=O)O)C(=O)N[C@@H](CC(C)C)C(N)=O)NC(=O)[C@H](CCC(=O)O)NC(=O)[C@H](CCC(N)=O)NC(=O)[C@H](CCC(N)=O)NC1=O)[C@@H](C)CC (Ac-IEALIRAAQCQQECNEAALREL-NH2; linker 10-14 via mXylylene),
123 nM,CC[C@H](C)[C@H](NC(C)=O)C(=O)N[C@@H](CCC(=O)O)C(=O)N[C@@H](C)C(=O)N[C@@H](CC(C)C)C(=O)N[C@H](C(=O)N[C@@H](CCCNC(=N)N)C(=O)N[C@@H](C)C(=O)N[C@@H](C)C(=O)N[C@@H](CCC(N)=O)C(=O)N[C@@H](CCC(=O)O)C(=O)N[C@@H](CCC(N)=O)C(=O)N[C@@H](CCC(N)=O)C(=O)N[C@@H](CCC(=O)O)C(=O)N[C@@H](CCCCN)C(=O)N[C@@H](CC(N)=O)C(=O)N[C@@H](CCC(=O)O)C(=O)N[C@H]1CSCc2cccc(c2)CSC[C@@H](C(=O)N[C@@H](CC(C)C)C(N)=O)NC(=O)[C@H](CCCNC(=N)N)NC(=O)[C@H](CC(C)C)NC(=O)[C@H](C)NC1=O)[C@@H](C)CC (Ac-IEALIRAAQEQQEKNECALRCL-NH2; linker 17-21 via mXylylene),
22 nM,CC[C@H](C)[C@H](NC(C)=O)C(=O)N[C@@H](CCC(=O)O)C(=O)N[C@@H](C)C(=O)N[C@@H](CC(C)C)C(=O)N[C@H](C(=O)NC1CCSCc2cccc(c2)CSCCC(C(=O)N[C@@H](CCC(N)=O)C(=O)N[C@@H](CCC(N)=O)C(=O)N[C@@H](CCCNC(=N)N)C(=O)N[C@@H](CCCCN)C(=O)N[C@@H](CC(N)=O)C(=O)N[C@@H](CCC(=O)O)C(=O)N[C@@H](CCC(=O)O)C(=O)N[C@@H](C)C(=O)N[C@@H](CC(C)C)C(=O)N[C@@H](CCCNC(=N)N)C(=O)N[C@@H](CCC(=O)O)C(=O)N[C@@H](CC(C)C)C(N)=O)NC(=O)[C@H](CCC(N)=O)NC(=O)[C@H](C)NC(=O)[C@H](C)NC1=O)[C@@H](C)CC (some centres not stated) (Ac-IEALI[ξhCys]AAQ[ξhCys]QQRKNEEALREL-NH2; linker 6-10 via mXylylene),
147 nM,CC[C@H](C)[C@H](NC(C)=O)C(=O)N[C@H]1CSCc2cccc(c2)CSC[C@@H](C(=O)N[C@@H](C)C(=O)N[C@@H](C)C(=O)N[C@@H](CCC(N)=O)C(=O)N[C@@H](CCC(=O)O)C(=O)N[C@@H](CCC(N)=O)C(=O)N[C@@H](CCC(N)=O)C(=O)N[C@@H](CCC(=O)O)C(=O)N[C@@H](CCCCN)C(=O)N[C@@H](CC(N)=O)C(=O)N[C@@H](CCC(=O)O)C(=O)N[C@@H](C)C(=O)N[C@@H](C)C(=O)N[C@@H](CC(C)C)C(=O)N[C@@H](CCCNC(=N)N)C(=O)N[C@@H](CCC(=O)O)C(=O)N[C@@H](CC(C)C)C(N)=O)NC(=O)[C@H]([C@@H](C)CC)NC(=O)[C@H](CC(C)C)NC(=O)[C@H](C)NC1=O (Ac-ICALICAAQEQQEKNEAALREL-NH2; linker 2-6 via mXylylene),
127 nM,Ac-IEALIRAAQEQQEKNEAALREL-NH2,
34 nM,CC[C@H](C)[C@H](NC(C)=O)C(=O)N[C@@H](CCC(=O)O)C(=O)N[C@@H](C)C(=O)N[C@@H](CC(C)C)C(=O)N[C@H](C(=O)NC1CCSCc2cccc(c2)CSCCC(C(=O)N[C@@H](CCC(N)=O)C(=O)N[C@@H](CCC(N)=O)C(=O)N[C@@H](CCC(=O)O)C(=O)N[C@@H](CCCCN)C(=O)N[C@@H](CC(N)=O)C(=O)N[C@@H](CCC(=O)O)C(=O)N[C@@H](C)C(=O)N[C@@H](C)C(=O)N[C@@H](CC(C)C)C(=O)N[C@@H](CCCNC(=N)N)C(=O)N[C@@H](CCC(=O)O)C(=O)N[C@@H](CC(C)C)C(N)=O)NC(=O)[C@H](CCC(N)=O)NC(=O)[C@H](C)NC(=O)[C@H](C)NC1=O)[C@@H](C)CC (some centres not stated) (Ac-IEALI[ξhCys]AAQ[ξhCys]QQEKNEAALREL-NH2; linker 6-10 via mXylylene),
214 nM,CC[C@H](C)[C@H](NC(C)=O)C(=O)N[C@@H](CCC(=O)O)C(=O)N[C@@H](C)C(=O)N[C@@H](CC(C)C)C(=O)N[C@H](C(=O)N[C@@H](CCCNC(=N)N)C(=O)N[C@@H](C)C(=O)N[C@@H](C)C(=O)N[C@H]1CSCc2cccc(c2)CSC[C@@H](C(=O)N[C@@H](CCCCN)C(=O)N[C@@H](CC(N)=O)C(=O)N[C@@H](CCC(=O)O)C(=O)N[C@@H](C)C(=O)N[C@@H](C)C(=O)N[C@@H](CC(C)C)C(=O)N[C@@H](CCCNC(=N)N)C(=O)N[C@@H](CCC(=O)O)C(=O)N[C@@H](CC(C)C)C(N)=O)NC(=O)[C@H](CCC(N)=O)NC(=O)[C@H](CCC(N)=O)NC(=O)[C@H](CCC(=O)O)NC1=O)[C@@H](C)CC (Ac-IEALIRAACEQQCKNEAALREL-NH2; linker 9-13 via mXylylene),
166 nM,CC[C@H](C)[C@H](NC(C)=O)C(=O)N[C@@H](CCC(=O)O)C(=O)N[C@@H](C)C(=O)N[C@@H](CC(C)C)C(=O)N[C@H](C(=O)N[C@@H](CCCNC(=N)N)C(=O)N[C@@H](C)C(=O)N[C@@H](C)C(=O)N[C@@H](CCC(N)=O)C(=O)N[C@@H](CCC(=O)O)C(=O)N[C@@H](CCC(N)=O)C(=O)N[C@@H](CCC(N)=O)C(=O)N[C@@H](CCC(=O)O)C(=O)N[C@@H](CCCCN)C(=O)N[C@@H](CC(N)=O)C(=O)N[C@H]1CSCc2cccc(c2)CSC[C@@H](C(=O)N[C@@H](CCC(=O)O)C(=O)N[C@@H](CC(C)C)C(N)=O)NC(=O)[C@H](CC(C)C)NC(=O)[C@H](C)NC(=O)[C@H](C)NC1=O)[C@@H](C)CC (Ac-IEALIRAAQEQQEKNCAALCEL-NH2; linker 16-20 via mXylylene),
